Among the data in patent US20260327215A1, “ISOXAZOLIDINES AS RIPK1 INHIBITORS AND USE THEREOF” (GENZYME CORPORATION, priority 2022, published 2026) are IC50 values, retold here.

Experiment [1] relates to U937 cells. Description: U937 cell assay: inhibition of TNFa/zVAD-induced cell death (necroptosis), MTS viability. It is filed as cell-based.
Experiment [2] addresses T1, hRIPK1 (aa 1-375) fusion protein (Homo sapiens, UniProt Q13546).
T1 construct: hRIPK1 (aa 1-375) fusion protein
T1 sequence (Q13546 1-375): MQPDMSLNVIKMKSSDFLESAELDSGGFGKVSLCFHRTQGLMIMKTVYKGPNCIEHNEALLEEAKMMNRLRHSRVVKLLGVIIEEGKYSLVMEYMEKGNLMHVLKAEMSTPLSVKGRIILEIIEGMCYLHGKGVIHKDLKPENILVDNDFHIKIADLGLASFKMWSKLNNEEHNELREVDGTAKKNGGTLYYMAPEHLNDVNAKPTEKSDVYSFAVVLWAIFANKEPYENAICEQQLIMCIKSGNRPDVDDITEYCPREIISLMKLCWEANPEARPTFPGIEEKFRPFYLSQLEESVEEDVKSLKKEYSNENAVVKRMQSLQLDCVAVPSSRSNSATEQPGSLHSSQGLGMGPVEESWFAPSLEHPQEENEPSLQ
Put plainly: ADP Glo assay: RIPK1 autophosphorylation (ATP to ADP conversion) inhibition. The format is biochemical. Particulars: 50 μM ATP; 30 min preincubation, 240 min incubation at room temperature; 1% DMSO. On the procedure: Evaluation of Receptor-Interacting Protein Kinase 1 Inhibition.
The catalytic activity of RIPK1 was measured by monitoring the conversion of Adenosine triphosphate (ATP) to Adenosine diphosphate (ADP) due to autophosphorylation using an ADP-Glo kinase kit (Promega, catalog no. V9104).
After another 240 minutes incubation at room temperature, 5 μl Promega ADP-Glo reagent I were added to quench the reaction and deplete unconsumed ATP. After an incubation period of 30 minutes, 10 μl Promega ADP-Glo detection reagent II were added resulting in conversion of ADP to ATP, which generates a light-reaction between luciferase and luciferin. Luminescence was quantified after 30 minutes with a Pherastar FS (BMG LABTECH, Ortenberg).
The adjustment was obtained by nonlinear regression using the Levenberg Marquardt algorithm.
For orientation: ADP-Glo first removes unused ATP, then detects ADP through luciferase.

Regarding `COc1ncnc(N2CCC(C(=O)N3OCC[C@H]3c3cc(F)cc(C#N)c3)CC2)c1F` [Example 5, 3-fluoro-5-[(3S)-2-[1-(5-fluoro-6-methoxy-pyrimidin-4-yl)piperidine-4-carbonyl]isoxazolidin-3-yl]benzonitrile], in experiment [1], the IC50 (in general, the concentration that inhibits the measured activity by half) was determined as 8 nM. With `COc1cc(N2CCC(C(=O)N3OCC[C@H]3c3cc(F)cc(C#N)c3)CC2)ncn1` [Example 4, (S)-3-fluoro-5-(2-(1-(6-methoxypyrimidin-4-yl)piperidine-4-carbonyl)isoxazolidin-3-yl)benzonitrile], the IC50 in experiment [2] was determined as 34 nM; in experiment [1] it was 80 nM.
